Source: ChEMBL document CHEMBL4421728, “Bach1 Inhibitors in Combination with Nrf2 Activators and Pharmaceutical Compositions Thereof” (2017)

Columns and labels:
[1] = molecular target: T1, Transcription regulator protein BACH1 (Homo sapiens) (UniProt O14867); test: Inhibition of Bach1 in normal human lung fibroblasts assessed as induction of HMOX protein expression at 0.078 uM in presence of 0.1 uM Nrf2 activator DMF incubated for 16 to 18 hrs by immunostaining relative to control
T1 sequence (whole entry): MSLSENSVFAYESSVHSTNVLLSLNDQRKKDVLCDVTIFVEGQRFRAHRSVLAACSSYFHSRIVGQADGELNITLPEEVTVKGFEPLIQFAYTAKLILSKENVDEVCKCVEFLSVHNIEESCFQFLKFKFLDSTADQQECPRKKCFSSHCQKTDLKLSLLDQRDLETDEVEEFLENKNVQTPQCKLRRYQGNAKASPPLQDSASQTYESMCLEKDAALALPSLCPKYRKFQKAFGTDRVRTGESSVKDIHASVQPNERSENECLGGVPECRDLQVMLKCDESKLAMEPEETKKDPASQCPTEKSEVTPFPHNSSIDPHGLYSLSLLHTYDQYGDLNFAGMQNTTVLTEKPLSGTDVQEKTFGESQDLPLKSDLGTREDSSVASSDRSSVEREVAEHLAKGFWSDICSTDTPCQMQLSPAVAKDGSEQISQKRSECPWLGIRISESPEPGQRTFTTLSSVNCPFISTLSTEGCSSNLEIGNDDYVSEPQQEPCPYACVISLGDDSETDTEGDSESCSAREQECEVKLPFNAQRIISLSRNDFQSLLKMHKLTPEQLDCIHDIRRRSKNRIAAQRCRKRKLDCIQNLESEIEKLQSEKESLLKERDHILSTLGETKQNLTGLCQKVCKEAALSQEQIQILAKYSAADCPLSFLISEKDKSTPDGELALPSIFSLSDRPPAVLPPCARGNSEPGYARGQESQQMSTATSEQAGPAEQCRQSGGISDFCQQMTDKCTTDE

[2] = molecular target: T1, Transcription regulator protein BACH1 (Homo sapiens); test: Inhibition of Bach1 in normal human lung fibroblasts assessed as induction of HMOX protein expression by measuring HMOX positive cells level at 0.039 uM in presence of 10 uM Nrf2 activator DMF incubated for 16 to 18 hrs by immunostaining relative to control DMSO; parameters: scale not given: the % may be the effect or the level left
[3] = molecular target: T1, Transcription regulator protein BACH1 (Homo sapiens); test: Inhibition of Bach1 in normal human lung fibroblasts assessed as induction of HMOX protein expression by measuring HMOX positive cells level at 0.078 uM in presence of 0.3 uM Nrf2 activator DMF incubated for 16 to 18 hrs by immunostaining relative to control DMSO; parameters: scale not given: the % may be the effect or the level left
[4] = molecular target: T1, Transcription regulator protein BACH1 (Homo sapiens); test: Inhibition of Bach1 in normal human lung fibroblasts assessed as induction of HMOX protein expression by measuring HMOX positive cells level at 0.039 uM incubated for 16 to 18 hrs by immunostaining relative to control DMSO; parameters: scale not given: the % may be the effect or the level left
[5] = molecular target: T1, Transcription regulator protein BACH1 (Homo sapiens); test: Inhibition of Bach1 in normal human lung fibroblasts assessed as induction of HMOX protein expression by measuring HMOX positive cells level at 0.019 uM in presence of 0.03 uM Nrf2 activator DMF incubated for 16 to 18 hrs by immunostaining relative to control DMSO; parameters: scale not given: the % may be the effect or the level left
[6] = molecular target: T1, Transcription regulator protein BACH1 (Homo sapiens); test: Inhibition of Bach1 in normal human lung fibroblasts assessed as induction of HMOX protein expression at 0.019 uM in presence of 30 uM Nrf2 activator DMF incubated for 16 to 18 hrs by immunostaining relative to control
[7] = molecular target: T1, Transcription regulator protein BACH1 (Homo sapiens); test: Inhibition of Bach1 in normal human lung fibroblasts assessed as induction of HMOX protein expression at 0.019 uM incubated for 16 to 18 hrs by immunostaining relative to control
[8] = molecular target: T1, Transcription regulator protein BACH1 (Homo sapiens); test: Inhibition of Bach1 in normal human lung fibroblasts assessed as induction of HMOX protein expression at 0.019 uM in presence of 0.03 uM Nrf2 activator DMF incubated for 16 to 18 hrs by immunostaining relative to control
[9] = molecular target: T1, Transcription regulator protein BACH1 (Homo sapiens); test: Inhibition of Bach1 in normal human lung fibroblasts assessed as induction of HMOX protein expression at 0.156 uM incubated for 16 to 18 hrs by immunostaining relative to control
[10] = molecular target: T1, Transcription regulator protein BACH1 (Homo sapiens); test: Inhibition of Bach1 in normal human lung fibroblasts assessed as induction of HMOX protein expression by measuring HMOX positive cells level at 0.019 uM in presence of 10 uM Nrf2 activator DMF incubated for 16 to 18 hrs by immunostaining relative to control DMSO; parameters: scale not given: the % may be the effect or the level left
[11] = molecular target: T1, Transcription regulator protein BACH1 (Homo sapiens); test: Inhibition of Bach1 in normal human lung fibroblasts assessed as induction of HMOX protein expression by measuring HMOX positive cells level at 0.078 uM in presence of 0.03 uM Nrf2 activator DMF incubated for 16 to 18 hrs by immunostaining relative to control DMSO; parameters: scale not given: the % may be the effect or the level left
[12] = molecular target: T1, Transcription regulator protein BACH1 (Homo sapiens); test: Inhibition of Bach1 in normal human lung fibroblasts assessed as induction of HMOX protein expression at 0.019 uM in presence of 1 uM Nrf2 activator DMF incubated for 16 to 18 hrs by immunostaining relative to control
[13] = molecular target: T1, Transcription regulator protein BACH1 (Homo sapiens); test: Inhibition of Bach1 in normal human lung fibroblasts assessed as induction of HMOX protein expression by measuring HMOX positive cells level at 0.078 uM in presence of 1 uM Nrf2 activator DMF incubated for 16 to 18 hrs by immunostaining relative to control DMSO; parameters: scale not given: the % may be the effect or the level left
[14] = molecular target: T1, Transcription regulator protein BACH1 (Homo sapiens); test: Inhibition of Bach1 in normal human lung fibroblasts assessed as induction of HMOX protein expression at 0.078 uM in presence of 0.03 uM Nrf2 activator DMF incubated for 16 to 18 hrs by immunostaining relative to control
[15] = molecular target: T1, Transcription regulator protein BACH1 (Homo sapiens); test: Inhibition of Bach1 in normal human lung fibroblasts assessed as induction of HMOX protein expression by measuring HMOX positive cells level at 0.039 uM in presence of 30 uM Nrf2 activator DMF incubated for 16 to 18 hrs by immunostaining relative to control DMSO; parameters: scale not given: the % may be the effect or the level left
[16] = molecular target: T1, Transcription regulator protein BACH1 (Homo sapiens); test: Inhibition of Bach1 in normal human lung fibroblasts assessed as induction of HMOX protein expression at 0.039 uM incubated for 16 to 18 hrs by immunostaining relative to control
[17] = molecular target: T1, Transcription regulator protein BACH1 (Homo sapiens); test: Inhibition of Bach1 in normal human lung fibroblasts assessed as induction of HMOX protein expression by measuring HMOX positive cells level at 0.078 uM in presence of 3 uM Nrf2 activator DMF incubated for 16 to 18 hrs by immunostaining relative to control DMSO; parameters: scale not given: the % may be the effect or the level left
[18] = molecular target: T1, Transcription regulator protein BACH1 (Homo sapiens); test: Inhibition of Bach1 in normal human lung fibroblasts assessed as induction of HMOX protein expression by measuring HMOX positive cells level at 0.039 uM in presence of 1 uM Nrf2 activator DMF incubated for 16 to 18 hrs by immunostaining relative to control DMSO; parameters: scale not given: the % may be the effect or the level left
[19] = molecular target: T1, Transcription regulator protein BACH1 (Homo sapiens); test: Inhibition of Bach1 in normal human lung fibroblasts assessed as induction of HMOX protein expression at 0.039 uM in presence of 0.1 uM Nrf2 activator DMF incubated for 16 to 18 hrs by immunostaining relative to control
[20] = molecular target: T1, Transcription regulator protein BACH1 (Homo sapiens); test: Inhibition of Bach1 in normal human lung fibroblasts assessed as induction of HMOX protein expression by measuring HMOX positive cells level at 0.078 uM in presence of 10 uM Nrf2 activator DMF incubated for 16 to 18 hrs by immunostaining relative to control DMSO; parameters: scale not given: the % may be the effect or the level left

fold change (FC) [1]	Activity [2] [%]	Activity [3] [%]	Activity [4] [%]	Activity [5] [%]	fold change (FC) [6]	fold change (FC) [7]	fold change (FC) [8]	fold change (FC) [9]	Activity [10] [%]	Activity [11] [%]	fold change (FC) [12]	Activity [13] [%]	fold change (FC) [14]	Activity [15] [%]	fold change (FC) [16]	Activity [17] [%]	Activity [18] [%]	fold change (FC) [19]	Activity [20] [%]	Structure (SMILES)
2.87	99.2	61.5	28	4.94	4.9	2.08	1.31	6.46	96.1	33.5	2.17	84.8	2.35	91.9	2.51	90.3	38.7	1.52	97.7	Cn1c(Nc2nc3ccc(C(F)(F)F)cc3s2)nc2cc(C(=O)NCCOCCO)ccc21
						0.97		3.46							1.09					CNC(=O)c1ccc2c(c1)nc(Nc1nc3ccc(OC(F)(F)F)cc3s1)n2C
1.21	92	10.3	5.3	1.8	4.23	1.24	1.17	1.96	92.6	1.72	1.57	29.4	1.12	87.5	1.45	55.2	23.1	1.08	94.5	COCCNC(=O)c1cnc2c(c1)nc(Nc1nc3ccc(OC(F)(F)F)cc3s1)n2C
1.48	94.7	16.2	2.31	1.18	4.65	1.29	1.1	2.66	94.2	5.99	1.68	37.7	1.37	90.4	1.37	81.8	23.5	1.35	97.2	CN(C)C(=O)CNC(=O)c1ccc2c(c1)nc(Nc1nc3ccc(C(F)(F)F)cc3s1)n2C
